{"source": "patent US20090286827A1", "about": "“NOVEL BI-ARYL AMINES” (priority 2006, published 2009)", "data": [{"biological_target": "T1, mGluR5 (Homo sapiens, UniProt P41594)", "T1 construct": "expressed in transfected cells", "T1 sequence (P41594 21-1180 isoform P41594-2 limits assumed)": "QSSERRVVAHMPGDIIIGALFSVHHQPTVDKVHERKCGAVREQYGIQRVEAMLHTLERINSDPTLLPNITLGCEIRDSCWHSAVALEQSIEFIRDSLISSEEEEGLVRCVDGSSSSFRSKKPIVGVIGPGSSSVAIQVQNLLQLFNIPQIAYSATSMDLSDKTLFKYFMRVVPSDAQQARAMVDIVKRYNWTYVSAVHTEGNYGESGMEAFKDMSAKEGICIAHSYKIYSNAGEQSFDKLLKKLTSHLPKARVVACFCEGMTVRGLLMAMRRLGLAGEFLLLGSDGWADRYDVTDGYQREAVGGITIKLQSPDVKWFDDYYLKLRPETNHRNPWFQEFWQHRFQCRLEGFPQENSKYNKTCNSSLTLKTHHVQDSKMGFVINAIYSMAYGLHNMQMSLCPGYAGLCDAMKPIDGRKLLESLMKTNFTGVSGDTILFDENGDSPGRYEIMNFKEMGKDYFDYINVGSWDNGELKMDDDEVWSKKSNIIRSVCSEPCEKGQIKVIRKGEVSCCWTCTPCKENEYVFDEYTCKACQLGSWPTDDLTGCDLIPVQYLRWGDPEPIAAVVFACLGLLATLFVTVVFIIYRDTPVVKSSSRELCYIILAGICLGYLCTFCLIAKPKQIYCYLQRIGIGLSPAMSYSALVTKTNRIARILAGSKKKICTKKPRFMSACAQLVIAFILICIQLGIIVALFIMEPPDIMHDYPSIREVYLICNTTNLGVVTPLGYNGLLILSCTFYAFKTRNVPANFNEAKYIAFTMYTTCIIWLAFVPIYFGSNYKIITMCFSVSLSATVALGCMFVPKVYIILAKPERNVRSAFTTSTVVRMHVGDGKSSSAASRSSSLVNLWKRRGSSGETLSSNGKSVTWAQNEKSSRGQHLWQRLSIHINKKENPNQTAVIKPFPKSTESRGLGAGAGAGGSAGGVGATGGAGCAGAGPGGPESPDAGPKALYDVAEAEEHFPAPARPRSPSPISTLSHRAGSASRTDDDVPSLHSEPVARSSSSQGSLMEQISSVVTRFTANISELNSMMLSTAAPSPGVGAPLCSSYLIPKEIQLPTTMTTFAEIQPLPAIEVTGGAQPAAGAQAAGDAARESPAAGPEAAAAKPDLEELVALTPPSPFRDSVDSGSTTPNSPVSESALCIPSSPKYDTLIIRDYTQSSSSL", "test": "inhibition of the glutamate induced elevation of intracellular Ca2+-concentration", "assay_type": "cell-based", "conditions": "inhibition of glutamate induced elevation of intracellular Ca2+ at a concentration of 10 μM; read-out: mGluR5 Activity inh. at 10 μM [%]", "source_text": "This can be determined in vitro for example at recombinant human metabotropic glutamate receptors, especially PLC-coupled subtypes thereof such as mGluR5, using different procedures like, for example, measurement of the inhibition of the agonist induced elevation of intracellular Ca^2+ concentration in accordance with L. P. Daggett et al., Neuropharm. Vol. 34, pages 871-886 (1995), P. J. Flor et al., J. Neurochem. Vol. 67, pages 58-63 (1996) or by determination to what extent the agonist induced elevation of the inositol phosphate turnover is inhibited as described by T. Knoepfel et al., Eur. J. Pharmacol. Vol. 288, pages 389-392 (1995), L. P. Daggett et al., Neuropharm. Vol. 34, pages 871-886 (1995) and references cited therein. Isolation and expression of human mGluR subtypes are described in U.S. Pat. No. 5,521,297. Selected agents of the invention show IC50 values for the inhibition of the agonist (e.g. glutamate or quisqualate) induced elevation of intracellular Ca2+ concentration or the agonist (e.g. glutamate or quisqualate) induced inositol phosphate turnover, measured in recombinant cells expressing hmGluR5a of about 1 nM to about 50 μM.\nActivity of compounds of the present invention was examined by measurement of the inhibition of the glutamate induced elevation of intracellular Ca^2+-concentration following similar methods than those described in L. P. Daggett et al., Neuropharm. Vol. 34, pages 871-886 (1995), P. J. Flor et al., J. Neurochem. Vol. 67, pages 58-63 (1996).\nThe table below represents percentages of inhibition of the glutamate induced elevation of intracellular Ca^2+-concentration at a concentration of 10 μM.", "units": {"inhibition at 10 µM": "%"}, "values": [{"smiles": "Cc1cn(C)c(-c2cnc(Nc3ccc(Cl)cc3)c(Cl)c2)n1", "note": "[Compound 30, [3-Chloro-5-(1,4-dimethyl-1H-imidazol-2-yl)-pyridin-2-yl]-(4-chloro-phenyl)-amine]", "inhibition at 10 µM": 98}, {"smiles": "CCCn1cc(C)nc1-c1cnc(Nc2ccc(Cl)cc2)c(Cl)c1", "note": "[Compound 33, [3-Chloro-5-(4-methyl-1-propyl-1H-imidazol-2-yl)-pyridin-2-yl]-(4-chloro-phenyl)-amine]", "inhibition at 10 µM": 100}, {"smiles": "Cc1cc(-c2cnc(Nc3ccc(Cl)cc3)c(Cl)c2)n(C)n1", "note": "[Compound 29, [3-Chloro-5-(2,5-dimethyl-2H-pyrazol-3-yl)-pyridin-2-yl]-(4-chloro-phenyl)-amine]", "inhibition at 10 µM": 39}, {"smiles": "Clc1ccc(Nc2ncc(-c3nnc4n3CCCC4)cc2Cl)cc1", "note": "[Compound 24, (4-Chloro-phenyl)-[3-chloro-5-(5,6,7,8-tetrahydro-[1,2,4]triazolo[4,3-a]pyridin-3-yl)-pyridin-2-yl]-amine]", "inhibition at 10 µM": 89}, {"smiles": "Clc1ccc(Nc2ccc(-c3nnc4ccccn34)cn2)cc1", "note": "[Compound 14, (4-Chloro-phenyl)-(5-[1,2,4]triazolo[4,3-a]pyridin-3-yl-pyridin-2-yl)-amine]", "inhibition at 10 µM": 28}, {"smiles": "CCn1ccnc1-c1cnc(Nc2ccc(Cl)cc2)c(Cl)c1", "note": "[Compound 15, [3-Chloro-5-(1-ethyl-1H-imidazol-2-yl)-pyridin-2-yl]-(4-chloro-phenyl)-amine]", "inhibition at 10 µM": 100}, {"smiles": "CC(C)n1ccnc1-c1ccc(Nc2ccc(Cl)cc2)nc1", "note": "[Compound 4, (4-Chloro-phenyl)-[5-(1-isopropyl-1H-imidazol-2-yl)-pyridin-2-yl]-amine]", "inhibition at 10 µM": 93}, {"smiles": "Clc1ccc(Nc2ncc(-c3ncc4ccccn34)cc2Cl)cc1", "note": "[Compound 16, (3-Chloro-5-imidazo[1,5-a]pyridin-3-yl-pyridin-2-yl)-(4-chloro-phenyl)-amine]", "inhibition at 10 µM": 32}, {"smiles": "CCn1cc(C(C)(C)C)nc1-c1cnc(Nc2ccc(Cl)cc2)c(Cl)c1", "note": "[Compound 39, [5-(4-tert-Butyl-1-ethyl-1H-imidazol-2-yl)-3-chloro-pyridin-2-yl]-(4-chloro-phenyl)-amine]", "inhibition at 10 µM": 97}, {"smiles": "CC(C)(C)c1cnc(-c2cnc(Nc3ccc(Cl)cc3)c(Cl)c2)[nH]1", "note": "[Compound 37, [5-(5-tert-Butyl-1H-imidazol-2-yl)-3-chloro-pyridin-2-yl]-(4-chloro-phenyl)-amine]", "inhibition at 10 µM": 95}, {"smiles": "CCCn1nnnc1-c1cnc(Nc2ccc(Cl)cc2)c(Cl)c1", "note": "[Compound 22, (4-Chloro-phenyl)-[3-chloro-5-(1-propyl-1H-tetrazol-5-yl)-pyridin-2-yl]-amine]", "inhibition at 10 µM": 49}, {"smiles": "Cc1cn(-c2cnc(Nc3ccc(Cl)cc3)c(Cl)c2)cn1", "note": "[Compound 49, [3-Chloro-5-(4-methyl-imidazol-1-yl)-pyridin-2-yl]-(4-chloro-phenyl)-amine]", "inhibition at 10 µM": 35}, {"smiles": "CCn1ccnc1-c1cnc(Nc2ccc(C)nc2)c(Cl)c1", "note": "[Compound 18, [3-Chloro-5-(1-ethyl-1H-imidazol-2-yl)-pyridin-2-yl]-(6-methyl-pyridin-3-yl)-amine]", "inhibition at 10 µM": 95}, {"smiles": "Cn1cc(C(C)(C)C)nc1-c1cnc(Nc2ccc(Cl)cc2)c(Cl)c1", "note": "[Compound 38, [5-(4-tert-Butyl-1-methyl-1H-imidazol-2-yl)-3-chloro-pyridin-2-yl]-(4-chloro-phenyl)-amine]", "inhibition at 10 µM": 86}, {"smiles": "CCn1c(-c2cnc(Nc3ccc(Cl)cc3)c(Cl)c2)nc(C)c1C", "note": "[Compound 20, [3-Chloro-5-(1-ethyl-4,5-dimethyl-1H-imidazol-2-yl)-pyridin-2-yl]-(4-chloro-phenyl)-amine]", "inhibition at 10 µM": 92}, {"smiles": "Clc1ccc(Nc2ncc(-c3nnc4n3CCCCCCC4)cc2Cl)cc1", "note": "[Compound 27, [3-Chloro-5-(6,7,8,9,10,11-hexahydro-5H-[1,2,4]triazolo[4,3-a]azonin-3-yl)-pyridin-2-yl]-(4-chloro-phenyl)-amine]", "inhibition at 10 µM": 100}, {"smiles": "Cc1cnc(-c2cnc(Nc3ccc(Cl)cc3)c(Cl)c2)n1C", "note": "[Compound 31, [3-Chloro-5-(1,5-dimethyl-1H-imidazol-2-yl)-pyridin-2-yl]-(4-chloro-phenyl)-amine]", "inhibition at 10 µM": 48}, {"smiles": "Clc1ccc(Nc2ncc(-c3nnc4n3CCCCC4)cc2Cl)cc1", "note": "[Compound 25, (4-Chloro-phenyl)-[3-chloro-5-(6,7,8,9-tetrahydro-5H-[1,2,4]triazolo[4,3-a]azepin-3-yl)-pyridin-2-yl]-amine]", "inhibition at 10 µM": 93}, {"smiles": "CC(C)n1cnnc1-c1ccc(Nc2ccc(Cl)cc2)nc1", "note": "[Compound 12, (4-Chloro-phenyl)-[5-(4-isopropyl-4H-[1,2,4]triazol-3-yl)-pyridin-2-yl]-amine]", "inhibition at 10 µM": 40}, {"smiles": "Clc1ccc(Nc2ccc(-c3nccn3CC3CC3)cn2)cc1", "note": "[Compound 6, (4-Chloro-phenyl)-[5-(1-cyclopropylmethyl-1H-imidazol-2-yl)-pyridin-2-yl]-amine]", "inhibition at 10 µM": 96}, {"smiles": "CCc1c(C)n(CC)c(-c2cnc(Nc3ccc(Cl)cc3)c(Cl)c2)[n+]1CC", "note": "[Compound 43, 2-[5-Chloro-6-(4-chloro-phenylamino)-pyridin-3-yl]-1,3,5-triethyl-4-methyl-3H-imidazol-1-ium iodide]", "inhibition at 10 µM": 37}, {"smiles": "Cc1cncn1-c1cnc(Nc2ccc(Cl)cc2)c(Cl)c1", "note": "[Compound 48, [3-Chloro-5-(5-methyl-imidazol-1-yl)-pyridin-2-yl]-(4-chloro-phenyl)-amine]", "inhibition at 10 µM": 32}, {"smiles": "Clc1ccc(Nc2ncc(-c3nnn[nH]3)cc2Cl)cc1", "note": "[Compound 21, (4-Chloro-phenyl)-[3-chloro-5-(1H-tetrazol-5-yl)-pyridin-2-yl]-amine]", "inhibition at 10 µM": 56}, {"smiles": "CC(C)n1cncc1-c1ccc(Nc2ccc(Cl)cc2)nc1", "note": "[Compound 10, (4-Chloro-phenyl)-[5-(3-isopropyl-3H-imidazol-4-yl)-pyridin-2-yl]-amine]", "inhibition at 10 µM": 73}, {"smiles": "Clc1ccc(Nc2ncc(-c3nnc4n3CCCCCC4)cc2Cl)cc1", "note": "[Compound 26, [3-Chloro-5-(5,6,7,8,9,10-hexahydro-[1,2,4]triazolo[4,3-a]azocin-3-yl)-pyridin-2-yl]-(4-chloro-phenyl)-amine]", "inhibition at 10 µM": 98}, {"smiles": "Cn1ccnc1-c1ccc(Nc2ccc(Cl)cc2)nc1", "note": "[Compound 2, (4-Chloro-phenyl)-[5-(1-methyl-1H-imidazol-2-yl)-pyridin-2-yl]-amine]", "inhibition at 10 µM": 81}, {"smiles": "CCn1ccnc1-c1ccc(Nc2ccc(Cl)cc2)nc1", "note": "[Compound 1, (4-Chloro-phenyl)-[5-(1-ethyl-1H-imidazol-2-yl)-pyridin-2-yl]-amine]", "inhibition at 10 µM": 94}, {"smiles": "CC(C)n1cnc(-c2ccc(Nc3ccc(Cl)cc3)nc2)c1", "note": "[Compound 11, (4-Chloro-phenyl)-[5-(1-isopropyl-1H-imidazol-4-yl)-pyridin-2-yl]-amine]", "inhibition at 10 µM": 56}, {"smiles": "CCc1cn(CC)c(-c2cnc(Nc3ccc(Cl)cc3)c(Cl)c2)n1", "note": "[Compound 36, [3-Chloro-5-(1,4-diethyl-1H-imidazol-2-yl)-pyridin-2-yl]-(4-chloro-phenyl)-amine]", "inhibition at 10 µM": 78}, {"smiles": "CCCCn1cc(CC)nc1-c1cnc(Nc2ccc(Cl)cc2)c(Cl)c1", "note": "[Compound 35, [5-(1-Butyl-4-ethyl-1H-imidazol-2-yl)-3-chloro-pyridin-2-yl]-(4-chloro-phenyl)-amine]", "inhibition at 10 µM": 100}, {"smiles": "CCCn1ccnc1-c1ccc(Nc2ccc(Cl)cc2)nc1", "note": "[Compound 3, (4-Chloro-phenyl)-[5-(1-propyl-1H-imidazol-2-yl)-pyridin-2-yl]-amine]", "inhibition at 10 µM": 96}, {"smiles": "CCCc1cnnn1-c1cnc(Nc2ccc(Cl)cc2)c(Cl)c1", "note": "[Compound 45, (4-Chloro-phenyl)-[3-chloro-5-(5-propyl-[1,2,3]triazol-1-yl)-pyridin-2-yl]-amine]", "inhibition at 10 µM": 89}, {"smiles": "CCCn1ccnc1-c1cnc(Nc2ccc(Cl)cc2)c(Cl)c1", "note": "[Compound 19, (4-Chloro-phenyl)-[3-chloro-5-(1-propyl-1H-imidazol-2-yl)-pyridin-2-yl]-amine]", "inhibition at 10 µM": 97}, {"smiles": "CCCn1cc(C(C)(C)C)nc1-c1cnc(Nc2ccc(Cl)cc2)c(Cl)c1", "note": "[Compound 40, [5-(4-tert-Butyl-1-propyl-1H-imidazol-2-yl)-3-chloro-pyridin-2-yl]-(4-chloro-phenyl)-amine]", "inhibition at 10 µM": 100}, {"smiles": "CCCn1c(-c2cnc(Nc3ccc(Cl)cc3)c(Cl)c2)nc(C)c1C", "note": "[Compound 42, [3-Chloro-5-(4,5-dimethyl-1-propyl-1H-imidazol-2-yl)-pyridin-2-yl]-(4-chloro-phenyl)-amine]", "inhibition at 10 µM": 94}, {"smiles": "CC(C)Cn1nnnc1-c1cnc(Nc2ccc(Cl)cc2)c(Cl)c1", "note": "[Compound 23, [3-Chloro-5-(1-isobutyl-1H-tetrazol-5-yl)-pyridin-2-yl]-(4-chloro-phenyl)-amine]", "inhibition at 10 µM": 53}, {"smiles": "Clc1ccc(Nc2ccc(-c3nccn3-c3ccccc3)cn2)cc1", "note": "[Compound 9, (4-Chloro-phenyl)-[5-(1-phenyl-1H-imidazol-2-yl)-pyridin-2-yl]-amine]", "inhibition at 10 µM": 63}, {"smiles": "Clc1ccc(Nc2ccc(-c3nccn3Cc3ccccc3)cn2)cc1", "note": "[Compound 8, [5-(1-Benzyl-1H-imidazol-2-yl)-pyridin-2-yl]-(4-chloro-phenyl)-amine]", "inhibition at 10 µM": 36}]}]}
